Data as given in ChEMBL document CHEMBL1123053, “Analogues of platelet activating factor. 3. Replacement of the phosphate moiety with a sulfonylbismethylene group” (1985).

Key:
Assay type in all cases: functional
Rattus norvegicus [1] = assay: Effect on mean arterial blood pressure in SHR rat at the dose of 0.3 mg/kg i.v.; conditions: route intravenous
Oryctolagus cuniculus = species on record: Oryctolagus cuniculus; assay: Compound did not aggregate rabbit platelet at concentration of 1.8E-5 M
Rattus norvegicus [2] = assay: Effect on mean arterial blood pressure in SHR rat at the dose of 10 mg/kg i.v.; conditions: route intravenous

Question: How did the Blood pressure (Rattus norvegicus [1]) turn out when `CCCCCCCCCCCCCCCCOCC(COP(=O)([O-])OCC[N+](C)(C)C)OC(C)=O` (stereo not drawn) [PLATELET ACTIVATING FACTOR] was run?
Answer: 20 mmHg

Question: And the Activity (Oryctolagus cuniculus)?
Answer: Did not aggregate rabbit platelet at concentration of 1.8E-5 M

Question: With `CCCCCCCCCCCCCCCCOCC(CCS(=O)(=O)CCC[N+](C)(C)C)OC(C)=O.[Cl-]` (stereo not drawn) as the compound, how does the Blood pressure (Rattus norvegicus [2]) read?
Answer: 20 mmHg
